In patent US9873693B2 (Sunesis Pharmaceuticals, Inc., priority 2006, dated 2018):
Read-outs that look alike come from different tables or passages of the source.

Key:
phosphorylated PDK1 = phosphorylated PDK1 (Homo sapiens (Human), UniProt O15530); assay: PDK1 kinase assay (coupled PDK1/AKT/FAM-crosstide, IMAP); type: biochemical; details: 0.5 nM phosphorylated PDK1, 24 μM ATP; read-out: Inhibition of phospo-PDK1 in vitro IC50
phospho-akt (Thr308) = phospho-akt (Thr308) MSD ELISA in PC-3 cells; type: cell-based; details: for inhibition at 1 µM / inhibition at 10 µM: read-out: Percent Inhibition of phospho-Akt (308) By MSD ELISA
Method: PC-3 cells were harvested by trypsin and counted. Cells were plated in coated 96-well flat bottom plates (plate 15,000 cells/well in 100 ul growth media (10% FBS, 1× pen-strep) an place in an incubator overnight.
Subject inhibitors were stocked at 50 mM, then diluted to 30 mM (4.8 μl cpd plus […] DMSO) in 100% DMSO. Three-fold dilutions were performed from 30 mM stock. (4 μl into 8 ul 100% DMSO). Aliquots of 1.0 μl of inhibitor solution were transferred into SF Medium (using deep well block).
Control wells were prepared as follows. For DMSO high controls, 1.0 μl of 100% DMSO was added into 1.0 ml SF.
MSD plates were blocked for 1 hour by adding 150 μl of Blocking Solution (3% BSA) to each well. The MSD plates were washed 4× with TBST, and 50 μl lysates were transferred to MSD plate and place on plate shaker shake at 4 degrees O/N, light shaking (speed 3.5). The plate was washed 4× with TBST.
25 μl of Ab detection solution was added to each well. The plate was sealed and incubated 1 hr RT, light shaking (speed 3.5). The plate was washed 4 times with TBST. 150 μl of Read Buffer was added (5 mls 4×MSD Read Buffer+15 mls water). Finally the plate was read immediately on the MSD plate reader.

[1] = Homo sapiens, PC-3, 2 h, PC-3 cells, 2 hours, no serum, read-out: Inhibition of P308 Akt in cells using MSD EC50
[2] = Homo sapiens, PC-3, 2 h, PC-3 cells, 2 hours, no serum, read-out: Reduction of Cellular Levels of Akt p308 By MSD ELISA (EC50 μM)
[3] = Homo sapiens, PC-3, 2 h, read-out: Inhibition of P308 Akt in cells using MSD EC50
[4] = Homo sapiens, PC-3, 2 h, read-out: Reduction of Cellular Levels of Akt p308 By MSD ELISA (EC50 μM)

Chain of phosphorylated PDK1 (O15530 51-360): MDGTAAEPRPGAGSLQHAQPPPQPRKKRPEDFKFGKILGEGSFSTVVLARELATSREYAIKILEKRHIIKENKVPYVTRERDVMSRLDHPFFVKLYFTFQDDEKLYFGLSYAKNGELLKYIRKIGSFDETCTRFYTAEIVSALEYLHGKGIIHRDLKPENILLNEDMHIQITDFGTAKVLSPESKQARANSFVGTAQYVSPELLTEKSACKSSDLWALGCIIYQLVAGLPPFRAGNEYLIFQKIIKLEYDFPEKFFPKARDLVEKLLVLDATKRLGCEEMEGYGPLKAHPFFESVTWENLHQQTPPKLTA

Row | Structure (SMILES) | IC50 (phosphorylated PDK1) | EC50 (phospho-akt (Thr308); [1]) | also measured
1 | O=C(N[C@@H](COc1ccc2[nH]c(=O)[nH]c2c1)c1ccsc1)c1cccn(Cc2ccc(F)c(F)c2)c1=O [Cpd 190] | < 500 nM | < 1 µM | 
2 | O=C(NC(C(=O)O)c1ccc(-c2c[nH]c3ncccc23)s1)c1cccn(Cc2ccc(F)c(F)c2)c1=O (stereo not drawn) [Cpd 335] | 500 to 10000 nM |  | EC50 (phospho-akt (Thr308); [2]): > 5 µM
3 | O=C(NCc1cccc(-c2c[nH]c3ncccc23)n1)c1cccn(Cc2ccc(F)c(F)c2)c1=O [Cpd 4] | < 500 nM | 1 to 5 µM | inhibition at 1 µM (phospho-akt (Thr308); Homo sapiens, PC-3 cells): 25 to 75%; inhibition at 10 µM (phospho-akt (Thr308); Homo sapiens, PC-3 cells): > 75%
4 | O=C(Cc1cccc(C2CNc3ncccc32)c1)Nc1cccn(Cc2ccc(F)c(F)c2)c1=O (stereo not drawn) [Cpd 44] | < 500 nM | 1 to 5 µM | 
5 | O=C(NCc1cccc(-c2c[nH]c3ncc(-c4ccncc4)cc23)c1)c1cccn(Cc2ccc(F)c(F)c2)c1=O [Cpd 48] | < 500 nM | < 1 µM | 
6 | O=C1Nc2cc(/C=C/CNC(=O)c3cccn(Cc4cc(F)c(F)c(F)c4)c3=O)ccc2/C1=C/c1cnc[nH]1 [Cpd 212] | < 500 nM | 1 to 5 µM | 
7 | COCCNC(=O)C[C@@H](NC(=O)c1cccn(Cc2ccc(F)c(F)c2)c1=O)c1ccc(-c2c[nH]c3ncccc23)s1 [Cpd 34] | < 500 nM | 1 to 5 µM | EC50 (phospho-akt (Thr308); [2]): 1 to 5 µM
8 | COCCNC(=O)c1cnc2[nH]cc(-c3cccc(CNC(=O)c4cccn(Cc5ccc(F)c(F)c5)c4=O)c3)c2c1 [Cpd 30] | < 500 nM | < 1 µM | EC50 (phospho-akt (Thr308); [2]): < 1 µM
9 | O=C1Nc2cc(/C=C/CNC(=O)c3cccn(Cc4ccc(F)c(F)c4)c3=O)ccc2/C1=C/c1ncc[nH]1 [Cpd 199] | < 500 nM | < 1 µM | 
10 | O=C(NCc1cccc(-c2c[nH]c3ncc(-c4cccs4)cc23)c1)c1cccn(Cc2ccc(F)c(F)c2)c1=O [Cpd 51] | < 500 nM | 1 to 5 µM | 
11 | O=C1Nc2cc(/C=C/CNC(=O)c3cccn(Cc4cc(F)c(F)c(F)c4)c3=O)ccc2/C1=C/c1ncc[nH]1 [Cpd 195] | < 500 nM | < 1 µM | 
12 | O=C(NC(COc1ccc2[nH]c(=O)[nH]c2c1)c1ccc(O)cc1)c1cccn(Cc2cc(F)c(F)c(F)c2)c1=O (stereo not drawn) [Cpd 188] | < 500 nM | 1 to 5 µM | 
13 | O=C1CCc2c(ncnc2-c2cccc(CNC(=O)c3cccn(Cc4ccc(F)c(F)c4)c3=O)c2)N1 [Cpd 240] | > 10000 nM |  | EC50 (phospho-akt (Thr308); [2]): 1 to 5 µM; inhibition at 1 µM (phospho-akt (Thr308); Homo sapiens, PC-3 cells): < 25%; inhibition at 10 µM (phospho-akt (Thr308); Homo sapiens, PC-3 cells): < 25%
14 | O=C(NC(COc1ccc2[nH]c(=O)[nH]c2c1)c1ccc(F)cc1)c1cccn(Cc2ccc(F)c(F)c2)c1=O (stereo not drawn) [Cpd 147] | < 500 nM | < 1 µM | EC50 (phospho-akt (Thr308); [2]): < 1 µM
15 | CCNC(=O)c1cnc2[nH]cc(-c3ccc(CNC(=O)c4cccn(Cc5ccc(F)c(F)c5)c4=O)s3)c2c1 [Cpd 41] | < 500 nM | < 1 µM | EC50 (phospho-akt (Thr308); [2]): < 1 µM
16 | O=C(N[C@@H](/C=C/c1ccc2[nH]c(=O)[nH]c2c1)c1ccccc1)c1cccn(Cc2cc(F)c(F)c(F)c2)c1=O [Cpd 183] | < 500 nM |  | EC50 (phospho-akt (Thr308); [3]): 1 to 5 µM
17 | O=C(NCc1cccc(-c2c[nH]c3cccnc23)c1)c1cccn(Cc2ccc(F)c(F)c2)c1=O [Cpd 241] | 500 to 10000 nM |  | inhibition at 1 µM (phospho-akt (Thr308); Homo sapiens, PC-3 cells): < 25%; inhibition at 10 µM (phospho-akt (Thr308); Homo sapiens, PC-3 cells): 25 to 75%
18 | O=C(NCc1nccc(-c2c[nH]c3ncccc23)n1)c1cccn(Cc2ccc(F)c(F)c2)c1=O [Cpd 146] | < 500 nM | > 5 µM | EC50 (phospho-akt (Thr308); [2]): 1 to 5 µM
19 | O=C(NCc1cccc(-c2c[nH]c3ncccc23)c1)c1cccn(Cc2ccc(Cl)c(Cl)c2)c1=O [Cpd 324] | < 500 nM | > 5 µM | EC50 (phospho-akt (Thr308); [2]): > 5 µM
20 | O=C(NCc1cc(-c2c[nH]c3ncccc23)cc(C(F)F)n1)c1cccn(Cc2ccc(F)c(F)c2)c1=O [Cpd 208] | < 500 nM | < 1 µM | 
21 | O=C(NCc1ccc(-c2c[nH]c3nccc(Cl)c23)s1)c1cccn(Cc2ccc(F)c(F)c2)c1=O [Cpd 55] | < 500 nM | 1 to 5 µM | 
22 | CCNC(=O)c1cnc2[nH]cc(-c3cccc(CNC(=O)c4cccn(Cc5ccc(F)c(F)c5)c4=O)c3)c2c1 [Cpd 28] | < 500 nM | < 1 µM | EC50 (phospho-akt (Thr308); [2]): < 1 µM

Row | Structure (SMILES) | IC50 (phosphorylated PDK1) | EC50 (phospho-akt (Thr308); [1]) | also measured
23 | CC(C)=C1C(=O)Nc2cc(/C=C/CNC(=O)c3cccn(Cc4cc(F)c(F)c(F)c4)c3=O)ccc21 [Cpd 204] | < 500 nM | 1 to 5 µM | 
24 | O=C(N[C@@H](COc1ccc2[nH]c(=O)[nH]c2c1)c1ccccc1)c1cccn(Cc2cc(F)c(F)c(F)c2)c1=O [Cpd 174] | < 500 nM |  | EC50 (phospho-akt (Thr308); [3]): 1 to 5 µM
25 | C[Si](C)(C)CCOCn1nc(NC(=O)c2cccn(Cc3ccc(F)c(F)c3)c2=O)c2cc(-c3c[nH]c4ncccc34)ccc21 [Cpd 36] | < 500 nM |  | EC50 (phospho-akt (Thr308); [3]): > 5 µM; EC50 (phospho-akt (Thr308); [4]): > 5 µM
26 | CC(=O)Oc1ccc(C(COc2ccc3[nH]c(=O)[nH]c3c2)NC(=O)c2cccn(Cc3cc(F)c(F)c(F)c3)c2=O)cc1 (stereo not drawn) [Cpd 189] | < 500 nM | < 1 µM | 
27 | O=C(NC/C=C/c1ccc2[nH]c(=O)[nH]c2c1)c1cccn(Cc2ccc(F)c(F)c2)c1=O [Cpd 160] | < 500 nM | > 5 µM | 
28 | O=C1Nc2cc(/C=C/CNC(=O)c3cccn(Cc4ccc(F)c(F)c4)c3=O)ccc2/C1=C\c1cccnc1 [Cpd 200] | < 500 nM | 1 to 5 µM | 
29 | O=C(N[C@@H](COc1ccc2[nH]c(=O)[nH]c2c1)c1cccs1)c1cccn(Cc2ccc(F)c(F)c2)c1=O [Cpd 192] | < 500 nM | < 1 µM | 
30 | O=C1Nc2cc(/C=C/CNC(=O)c3cccn(Cc4cc(F)c(F)c(F)c4)c3=O)ccc2/C1=C\c1ccc(O)cc1 [Cpd 201] | < 500 nM | < 1 µM | 
31 | CN(C)C(=O)c1cnc2[nH]cc(-c3cccc(CNC(=O)c4cccn(Cc5ccc(F)c(F)c5)c4=O)c3)c2c1 [Cpd 27] | < 500 nM | < 1 µM | EC50 (phospho-akt (Thr308); [2]): < 1 µM
32 | O=C(NCc1ccc(-c2ccc3cn[nH]c3c2)s1)c1cccn(Cc2ccc(F)c(F)c2)c1=O [Cpd 59] | < 500 nM | 1 to 5 µM | 
33 | O=C(Nc1cccc2ccc(-c3c[nH]c4ncccc34)cc12)c1cccn(Cc2ccc(F)c(F)c2)c1=O [Cpd 35] | < 500 nM | > 5 µM | EC50 (phospho-akt (Thr308); [2]): < 1 µM
34 | O=C(NCc1cccc(-c2c[nH]c3ncc(-c4ccsc4)cc23)c1)c1cccn(Cc2ccc(F)c(F)c2)c1=O [Cpd 331] | < 500 nM | 1 to 5 µM | 
35 | O=C(NCc1cccc(-c2n[nH]c3ncccc23)c1)c1cccn(Cc2ccc(F)c(F)c2)c1=O [Cpd 6] | < 500 nM | 1 to 5 µM | inhibition at 1 µM (phospho-akt (Thr308); Homo sapiens, PC-3 cells): 25 to 75%; inhibition at 10 µM (phospho-akt (Thr308); Homo sapiens, PC-3 cells): 25 to 75%
36 | CCCNC(=O)C[C@@H](NC(=O)c1cccn(Cc2ccc(F)c(F)c2)c1=O)c1ccc(-c2c[nH]c3ncccc23)s1 [Cpd 32] | < 500 nM |  | EC50 (phospho-akt (Thr308); [3]): 1 to 5 µM; EC50 (phospho-akt (Thr308); [4]): 1 to 5 µM
37 | O=C(NCc1cc(-c2c[nH]c3ncccc23)ccn1)c1cccn(Cc2ccc(F)c(F)c2)c1=O [Cpd 164] | < 500 nM | < 1 µM | 
38 | CC(C)Oc1cc(CNC(=O)c2cccn(Cc3ccc(F)c(F)c3)c2=O)cc(-c2c[nH]c3ncc(F)cc23)c1 [Cpd 98] | < 500 nM | 1 to 5 µM | 
39 | NCc1cnc2[nH]cc(-c3cccc(CNC(=O)c4cccn(Cc5ccc(F)c(F)c5)c4=O)c3)c2c1 [Cpd 37] | < 500 nM |  | EC50 (phospho-akt (Thr308); PC-3 cells, 2 hours, no serum, read-out: Inhibition of P308 Akt in cells using MSD EC50): 1 to 5 µM
40 | CC(C)/C=C1/C(=O)Nc2cc(/C=C/CNC(=O)c3cccn(Cc4cc(F)c(F)c(F)c4)c3=O)ccc21 [Cpd 205] | < 500 nM | > 5 µM | 
41 | O=C(NCc1cc(-c2c[nH]c3ncccc23)ccc1F)c1cccn(Cc2ccc(F)c(F)c2)c1=O [Cpd 278] | < 500 nM |  | inhibition at 1 µM (phospho-akt (Thr308); Homo sapiens, PC-3 cells): < 25%; inhibition at 10 µM (phospho-akt (Thr308); Homo sapiens, PC-3 cells): 25 to 75%
42 | O=C(NCc1cc(-c2c[nH]c3ncccc23)c[n+]([O-])c1)c1cccn(Cc2ccc(F)c(F)c2)c1=O [Cpd 165] | < 500 nM | > 5 µM | 
43 | O=C(NCc1cc(OCCN2CCOCC2)cc(-c2c[nH]c3ncccc23)c1)c1cccn(Cc2ccc(F)c(F)c2)c1=O [Cpd 56] | < 500 nM | 1 to 5 µM | 
